These results are taken from patent publication US12398141B2 (SHANGHAI SYNERGY PHARMACEUTICAL SCIENCES CO., LTD, priority 2019, dated 2025).

The test system of one data set is Sprague-Dawley (SD) mice. The data set is described as follows: Concanavalin-induced paw swelling in mice. The format is in vivo. The following applies: 10 mg/kg intragastric; for Paw swelling rate_1 h (%): 1 h; for Paw swelling rate_2 h (%): 2 h; for Paw swelling rate_4 h (%): 4 h; for Paw swelling rate_6 h (%): 6 h. The method, boiled down: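 SD […], 6-7 weeks, 160-180 g, dosed intragastrically with compound in 4% Tween 80/0.5% HPMC. 0.5 h later, 0.1 ml 0.03% concanavalin injected subcutaneously into the plantar. Paw volume measured before modeling and at 1, 2, 4 and 6 h; swelling rate expressed as percent change from pre-dose volume.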

The nature of data set [1]: Pharmacokinetic test after intragastric administration. The format is in vivo. The following applies: Sprague-Dawley, mouse, plasma, po, SD mice, 5 mg/kg intragastric; for AUC(0-t): read-out: Area under the curve (AUC0-24, ng/ml · h); for Cmax: read-out: Plasma concentration (Cmax, ng/ml); for half-life: read-out: half life (T1/2, h) (converted). As for the experimental part:
Drug concentrations of compounds H01, H07, H11, H12, H14, H15, H22, H25, H29, H30, H33, H39 and H44 intragastrically administrated in plasma by using LC/MS/MS method at various time points were determined by using Sprague-Dawley (SD) […], aged 7-8 weeks and weighing […] as test animals. Pharmacokinetic behavior of the compounds of the invention in […] was studied and its pharmacokinetic characteristics were evaluated.
A certain amount of compounds was taken and dissolved in 50% PEG400/water to prepare a uniform solution.
Mice were administered intragastrically with the above compounds with a dosage of 5 mg/kg. Blood (0.2 ml) was taken from orbits before administration and 0.083 h, 0.25 h, 0.5 h, 1.0 h, 2.0 h, 4.0 h, 6.0 h, 8.0 h, 12.0 h and 24.0 h after administration. The blood was placed in anticoagulant tubes containing dipotassium ethylene glycol diethyl ether diamine tetraacetic acid, centrifugated at 6000 rpm at 4° C. for 10 minutes to separate plasma and saved at −80° C.
50 μL plasma at various time was taken and 150 μL acetonitrile solution containing internal standard tolbutamide (Sigma, USA) was added, mixed and stirred for 5 minutes. After centrifugation for 5 minutes at 12,000 rpm, 100 μL supernatant was taken, mixed with 200 μL water, following by sample injection and analysis.
Liquid chromatogram system was LC-20AD UFLC High Performance Liquid Chromatography system. Mass spectrum system was AB Sciex API4000 triple quadrupole mass spectrometer equipped with Electron Spray Ionization (ESI) (Applied Biosystems, Canada). A software for controlling liquid chromatography-mass spectrometry and quantitative analysis was Anna Rust 1.6 (Applied Biosystems, Canada). Pharmacokinetic parameters were analyzed by WinNonlin (version 5.2, Pharsight, Mountain View, […]) non-compartment model.
The test compound was dissolved in dimethyl sulfoxide to prepare a stock solution with a concentration of 1 mg/mL. The solution was diluted with 50% acetonitrile to obtain a series of standard working solutions with concentrations of 10 μg/mL, 3 μg/mL, 1 μg/mL, 0.3 μg/mL, 0.1 μg/mL, 0.03 μg/mL and 0.01 μg/mL, and a series of standard quality control solutions with concentrations of 8 μg/mL, 0.5 μg/mL, 0.03 μg/mL. 5 μL standard solution was mixed with 45 μL blank plasma substrate uniformly to obtain standard solutions of each concentration of a standard curve (1000 ng/mL, 500 ng/mL, 200 ng/mL, 100 ng/mL, 10 ng/mL, 5 ng/mL, 2 and 1 ng/mL) and quality control solutions (plasma samples: 800 ng/mL, 50 and 3 ng/mL).
Internal standard tolbutamide solid powder was dissolved in dimethyl sulfoxide to prepare a 1 mg/mL stock solution. The stock solution was diluted with 100% acetonitrile to obtain 200 ng/mL solution as a protein precipitation solution.

For a further data set, the system named is TF-1 cell. The data set is described as follows: TF-1 cell proliferation test. The format is cell-based. The following applies: Homo sapiens, 72 h.
The next data set relates to Blast T cell. The data set is described as follows: Cell proliferation test of IL-2 stimulated Blast T cell. The following applies: Homo sapiens; IL-2 stimulated Blast T cell proliferation, 72 hours. The class given is cell-based.

By IC50 is commonly meant the concentration needed to halve the response being measured. A lower IC50 goes with higher potency. On to `N#Cc1cnc2[nH]ccc2c1N[C@H]1C[C@@H](NS(=O)(=O)CCC(F)(F)F)C1` [Compound H12, (cis)-4-{[3-(3,3,3-trifluoropropanesulfonamido)-cyclobutyl-1-yl]-amino}-1H-pyrrolo[2,3-b]pyridin-5-carbonitrile], for which, in the data set on Sprague-Dawley (SD) mice, the “Paw swelling rate_1 h (%)” value came out at 28.90 ± 2.00%, the “Paw swelling rate_2 h (%)” value was 23.10 ± 3.00%, the “Paw swelling rate_4 h (%)” value was 24.00 ± 2.90% and the “Paw swelling rate_6 h (%)” value was determined as 24.00 ± 3.00%. Further, in data set [1], the AUC(0-t) is 1020 ± 266 ng·h/mL, the Cmax was 644 ± 82 ng/mL and the half-life was 4.23 ± 0.47 h. This compound also registered an IC50 in the data set on TF-1 cell of 1.67 µM. Besides, the IC50 with Blast T cell turned out to be 0.011 µM.

For the compound `CN(C)c1nsc(NC(=O)N2C[C@H]3C[C@H](N(C)c4c(C#N)cnc5[nH]ccc45)C[C@H]3C2)n1` [Compound H33, (3aR,5s,6aS)-4-({2-[(3-dimethylamino-1,2,4-thiadiazole-5-yl)carbamoyl]-hexahydrocyclopenta[c]pyrrole-5-yl}-methyl-amino)-1H-pyrrolo[2,3-b]pyridin-5-carbonitrile], in the data set with Sprague-Dawley (SD) mice, the “Paw swelling rate_1 h (%)” value was found to be 27.80 ± 2.00%, the “Paw swelling rate_2 h (%)” value worked out at 29.20 ± 3.10%, the “Paw swelling rate_4 h (%)” value came out at 30.10 ± 2.90% and the “Paw swelling rate_6 h (%)” value amounted to 30.10 ± 2.90%. For the same compound, in data set [1], the AUC(0-t) stood at 1820 ± 173 ng·h/mL, the Cmax worked out at 440 ± 89 ng/mL and the half-life is 8.64 ± 0.23 h. Besides, in the data set on TF-1 cell, the IC50 stood at 1.1 µM. The same compound registered an IC50 in the data set on Blast T cell of 0.023 µM.

In the case of `CCCS(=O)(=O)N[C@H]1C[C@@H](N(C)c2c(C#N)cnc3[nH]ccc23)C1` [Compound H14, (cis)-4-{[3-(propanesulfonamido)-cyclobutyl-1-yl]-methyl-amino}-1H-pyrrolo[2,3-b]pyridin-5-carbonitrile], in the data set with Sprague-Dawley (SD) mice, the “Paw swelling rate_1 h (%)” value is 32.10 ± 5.20%, the “Paw swelling rate_2 h (%)” value stood at 25.90 ± 5.00%, the “Paw swelling rate_4 h (%)” value is 25.50 ± 4.00% and the “Paw swelling rate_6 h (%)” value stood at 25.10 ± 4.20%. In addition, in data set [1], the AUC(0-t) turned out to be 915 ± 240 ng·h/mL, the Cmax amounted to 438 ± 24 ng/mL and the half-life was 2.11 ± 0.16 h. Also, half-maximal inhibition in the data set with TF-1 cell (IC50) was put at 0.63 µM. In the data set with Blast T cell, this compound yielded an IC50 of 0.017 µM.
